Assay results: US20220177538A1, “CO-AGONISTS AT GLP-1 AND GIP RECEPTORS SUITABLE FOR ORAL DELIVERY” (Novo Nordisk A/S, priority 2020, published 2022)
pEC50: −log10 of the molar value. Read-outs that look alike come from different tables or passages of the source. Starred links: 1 amine or outer side, 2 acyl side, 3 side chain; linkers in the order of their positions; H or OH if unused. Non-standard residues stand in square brackets, D forms with d. Residues, ends and D or L forms follow the SMILES beside them. Groups on a side chain read outwards from the residue. *: point of attachment. C18 diacid = O=C(O)CCCCCCCCCCCCCCCCC(=O)*; γGlu = O=C(O)[C@H](CCC(=O)[*:2])N[*:1]; εLys = N[C@@H](CCCCN[*:1])C(=O)[*:2]; Aib = CC(C)(N)C(=O)O

How the values were obtained:
human GIP receptor = molecular target: T1, human GIP receptor (Homo sapiens, UniProt P48546); assay: In vitro functional potency, CRE luciferase reporter, whole BHK cells (hGIPR); assay type: cell-based; settings: BHK CRE luc2P hGIPR cells
T1 construct: expressed in transfected cells; host or cells: BHK (parent line BHKTS13), clone BHK CRE luc2P hGIPR
T1 sequence (P48546 22-466): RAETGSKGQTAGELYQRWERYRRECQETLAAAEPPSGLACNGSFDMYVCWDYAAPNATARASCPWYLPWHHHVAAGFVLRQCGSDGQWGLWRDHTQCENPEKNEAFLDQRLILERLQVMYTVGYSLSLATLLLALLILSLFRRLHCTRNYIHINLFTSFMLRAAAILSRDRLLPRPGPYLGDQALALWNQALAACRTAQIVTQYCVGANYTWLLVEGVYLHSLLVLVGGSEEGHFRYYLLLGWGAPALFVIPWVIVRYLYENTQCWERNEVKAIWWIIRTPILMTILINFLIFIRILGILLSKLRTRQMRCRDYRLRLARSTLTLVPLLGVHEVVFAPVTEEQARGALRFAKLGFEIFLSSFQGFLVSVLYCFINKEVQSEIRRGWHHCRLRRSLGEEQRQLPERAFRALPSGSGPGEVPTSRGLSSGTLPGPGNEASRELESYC
Description: (§1) The in vitro functional potency is the measure of target receptor activation in a whole cell assay.
(§2) In vitro functional potency was determined by measuring the response of the target receptor in a reporter gene assay in individual cell lines. […] When the respective receptor is activated, it results in the production of cAMP, which in turn results in expression of the luciferase protein. When assay incubation is completed, luciferase substrate (luciferin) is added resulting in the enzymatic conversion of luciferin to oxyluciferin and producing bioluminescence. The luminescence is measured as the readout for the assay.
(§3) The cells lines used in these assays were BHK cells with BHKTS13 as a parent cell line. The cell lines were derived from a clone containing the CRE luciferase element and were established by further transfection with the respective human receptor to obtain the relevant cell line: BHK CRE luc2P hGLP-1R or BHK CRE luc2P hGIPR. The cells were cultured at 37° C. with 5% CO2 in Cell Culture Medium. They were aliquoted and stored in liquid nitrogen. The cells were kept in continuous culture and were seeded out the day before each assay.
(§4) GLP-1R Cell Culture Medium consisted of DMEM medium with 10% FBS, 500 µg/mL G418, and 300 µg/mL hygromycin. GIPR Cell Culture Medium consisted of DMEM medium with 10% FBS, 400 µg/mL G418, and 300 µg/mL hygromycin. Assay Buffer consisted of DMEM w/o phenol red, 10 mM Hepes, 1× Glutamax. 1% ovalbumin, and 0.1% Pluronic F-68 with the addition of HSA at twice the final assay concentration.
(§5) 1) Cells were plated at 5000 cells/well and incubated overnight in the assay plate. 2) Cells were washed once in DPBS. 3) Stocks of the test compounds and reference compounds in concentrations ranging from […] were diluted 1:150 in Assay Buffer. Compounds were then diluted 1:10 in column 1 of a 96 deep well dilution plate and then carried across the row creating a 3.5 fold, 12 point dilution curve. 4) Assay Buffer (50 μl aliquot) with or without HSA was added to each well in the assay plate. 5) A 50 μl aliquot of compound or blank was transferred from the dilution plate to the assay plate containing the Assay Buffer with or without HSA. 6) The assay plate was incubated for 3 h in a 5% CO2 incubator at 37° C. 7) The cells were washed once with DPBS. 8) A 100 μl aliquot of DPBS was added to each well of the assay plate. 9) A 100 μl aliquot of steadylite plus reagent (light sensitive) was added to each well of the assay plate. 10) Each assay plate was covered with aluminum foil to protect it from light and shaken at 250 RPM for 30 min at room temperature. 11) Each assay plate was read in a microtiter plate reader.
(§6) The data from the microtiter plate reader was first regressed in an Excel in order to calculate the x-axis, log scale concentrations based on the individual test compound's stock concentration and the dilutions of the assay. […] The software performs a non-linear regression (log(agonist) vs response). A minimum of two replicates was measured for each sample. The reported values are averages of the replicates.

human GLP-1 receptor = human GLP-1 receptor (Homo sapiens, UniProt P43220); assay: In vitro functional potency, CRE luciferase reporter, whole BHK cells (hGLP-1R); assay type: cell-based; design: expressed in transfected cells; host or cells: BHK (parent line BHKTS13), clone BHK CRE luc2P hGLP-1R; settings: BHK CRE luc2P hGLP-1R cells
Chain of human GLP-1 receptor (P43220 24-463): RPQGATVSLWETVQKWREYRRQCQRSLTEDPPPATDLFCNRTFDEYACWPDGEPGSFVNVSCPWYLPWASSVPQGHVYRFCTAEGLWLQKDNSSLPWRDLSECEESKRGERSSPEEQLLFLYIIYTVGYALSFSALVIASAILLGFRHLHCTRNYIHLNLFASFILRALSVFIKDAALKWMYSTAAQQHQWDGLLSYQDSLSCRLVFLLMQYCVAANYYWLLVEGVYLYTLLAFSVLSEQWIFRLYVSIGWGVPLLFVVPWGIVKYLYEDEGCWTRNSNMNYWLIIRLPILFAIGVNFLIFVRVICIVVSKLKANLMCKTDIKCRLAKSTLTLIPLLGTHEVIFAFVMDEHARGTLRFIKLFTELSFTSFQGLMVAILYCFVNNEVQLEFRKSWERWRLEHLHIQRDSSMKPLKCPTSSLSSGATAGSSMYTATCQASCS
Description: as §1, §2, §3, §4, §5, §6

[1] = 0% HSA, read-out: hGIPR, CRE Luc 0% HSA EC50
[2] = hGIPR, CRE Luc 1% HSA EC50, 1% HSA
[3] = 0% HSA, read-out: hGLP-1R, CRE Luc 0% HSA EC50
[4] = hGLP-1R, CRE Luc 1% HSA EC50, 1% HSA

| Compound | pEC50 (human GIP receptor; [1]) | pEC50 (human GIP receptor; [2]) | pEC50 (human GLP-1 receptor; [3]) | pEC50 (human GLP-1 receptor; [4]) | pEC50 (human GIP receptor; hGIPR, CRE Luc 0% HSA EC50, 0% HSA) | pEC50 (human GLP-1 receptor; hGLP-1R, CRE Luc 0% HSA EC50, 0% HSA) |
| --- | --- | --- | --- | --- | --- | --- |
| CC[C@H](C)[C@H](NC(=O)[C@H](Cc1ccccc1)NC(=O)[C@H](CCC(=O)O)NC(=O)[C@H](CCCNC(=N)N)NC(=O)[C@H](C)NC(=O)[C@H](C)NC(=O)[C@H](CCC(N)=O)NC(=O)[C@H](CCC(=O)O)NC(=O)[C@H](CCC(=O)O)NC(=O)[C@H](CC(C)C)NC(=O)[C@H](CC(C)C)NC(=O)[C@@H](NC(=O)[C@H](CO)NC(=O)[C@H](Cc1ccc(O)cc1)NC(=O)[C@H](CC(=O)O)NC(=O)[C@H](CO)NC(=O)[C@@H](NC(=O)[C@H](Cc1ccccc1)NC(=O)[C@@H](NC(=O)CNC(=O)[C@H](CCC(=O)O)NC(=O)C(C)(C)NC(=O)[C@@H](N)Cc1ccc(O)cc1)[C@@H](C)O)[C@@H](C)O)[C@@H](C)CC)C(=O)N[C@@H](CC(N)=O)C(=O)N[C@@H](Cc1c[nH]c2ccccc12)C(=O)N[C@@H](CC(C)C)C(=O)N[C@@H](CC(C)C)C(=O)N[C@@H](C)C(=O)NCC(=O)NCC(=O)N1CCC[C@H]1C(=O)N[C@@H](CO)C(=O)N[C@@H](CCCCNC(=O)[C@@H](N)CCCCNC(=O)[C@@H](N)CCCCNC(=O)CC[C@H](NC(=O)CCCCCCCCCCCCCCCCC(=O)O)C(=O)O)C(=O)NCC(=O)N[C@@H](C)C(=O)N1CCC[C@H]1C(=O)N1CCC[C@H]1C(=O)N1CCC[C@H]1C(=O)N[C@@H](CO)C(=O)O [Compound 44] (H-Y[Aib]EGTFTSDYSILLEEQAAREFINWLLAGGPSK([εLys-εLys-γGlu-C18 diacid])GAPPPS-OH) | 11.24 | 9.44 | 11.38 | 9.62 | – | – |
| CC[C@H](C)[C@H](NC(=O)[C@H](Cc1ccccc1)NC(=O)[C@H](CCCCNC(=O)[C@@H](N)CCCCNC(=O)[C@@H](N)CCCCNC(=O)CC[C@H](NC(=O)CCCCCCCCCCCCCCCCC(=O)O)C(=O)O)NC(=O)[C@H](CCCNC(=N)N)NC(=O)[C@H](C)NC(=O)[C@H](C)NC(=O)[C@H](CCC(N)=O)NC(=O)[C@H](CCC(=O)O)NC(=O)[C@H](CCC(=O)O)NC(=O)[C@H](CC(C)C)NC(=O)[C@H](CC(C)C)NC(=O)[C@@H](NC(=O)[C@H](CO)NC(=O)[C@H](Cc1ccc(O)cc1)NC(=O)[C@H](CC(=O)O)NC(=O)[C@H](CO)NC(=O)[C@@H](NC(=O)[C@H](Cc1ccccc1)NC(=O)[C@@H](NC(=O)CNC(=O)[C@H](CCC(=O)O)NC(=O)C(C)(C)NC(=O)[C@@H](N)Cc1ccc(O)cc1)[C@@H](C)O)[C@@H](C)O)[C@@H](C)CC)C(=O)N[C@@H](CC(N)=O)C(=O)N[C@@H](Cc1c[nH]c2ccccc12)C(=O)N[C@@H](CC(C)C)C(=O)N[C@@H](CC(C)C)C(=O)N[C@@H](C)C(=O)NCC(=O)NCC(=O)N1CCC[C@H]1C(=O)N[C@@H](CO)C(=O)N[C@@H](CO)C(=O)NCC(=O)N[C@@H](C)C(=O)N1CCC[C@H]1C(=O)N1CCC[C@H]1C(=O)N1CCC[C@H]1C(=O)N[C@@H](CO)C(=O)O [Compound 39] (H-Y[Aib]EGTFTSDYSILLEEQAARK([εLys-εLys-γGlu-C18 diacid])FINWLLAGGPSSGAPPPS-OH) | 10.55 | 9.44 | 11.09 | 9.87 | – | – |
| CC[C@H](C)[C@H](NC(=O)[C@H](Cc1ccccc1)NC(=O)[C@H](CCC(=O)O)NC(=O)[C@H](CCCNC(=N)N)NC(=O)[C@H](C)NC(=O)[C@H](C)NC(=O)[C@H](CCC(N)=O)NC(=O)[C@H](CCCCNC(=O)[C@@H](N)CCCCNC(=O)[C@@H](N)CCCCNC(=O)CC[C@H](NC(=O)CCCCCCCCCCCCCCCCC(=O)O)C(=O)O)NC(=O)[C@H](CCC(=O)O)NC(=O)[C@H](CC(C)C)NC(=O)[C@H](Cc1ccc(O)cc1)NC(=O)[C@@H](NC(=O)[C@H](CO)NC(=O)[C@H](Cc1ccc(O)cc1)NC(=O)[C@H](CC(=O)O)NC(=O)[C@H](CO)NC(=O)[C@@H](NC(=O)[C@H](Cc1ccccc1)NC(=O)[C@@H](NC(=O)CNC(=O)[C@H](CCC(=O)O)NC(=O)[C@H](C)NC(=O)[C@@H](N)Cc1ccc(O)cc1)[C@@H](C)O)[C@@H](C)O)[C@@H](C)CC)C(=O)N[C@@H](CC(N)=O)C(=O)N[C@@H](Cc1c[nH]c2ccccc12)C(=O)N[C@@H](CC(C)C)C(=O)N[C@@H](CC(C)C)C(=O)N[C@@H](C)C(=O)NCC(=O)NCC(=O)N1CCC[C@H]1C(=O)N[C@@H](CO)C(=O)N[C@@H](CO)C(=O)NCC(=O)N[C@@H](C)C(=O)N1CCC[C@H]1C(=O)N1CCC[C@H]1C(=O)N1CCC[C@H]1C(=O)N[C@@H](CO)C(=O)O [Compound 17] (H-YAEGTFTSDYSIYLEK([εLys-εLys-γGlu-C18 diacid])QAAREFINWLLAGGPSSGAPPPS-OH) | 10.46 | 8.88 | 11.28 | 9.59 | – | – |
| CC[C@H](C)[C@H](NC(=O)[C@H](Cc1ccccc1)NC(=O)[C@H](CCC(=O)O)NC(=O)[C@H](CCCNC(=N)N)NC(=O)[C@H](C)NC(=O)[C@H](C)NC(=O)[C@H](CCC(N)=O)NC(=O)[C@H](CCCCNC(=O)[C@@H](N)CCCCNC(=O)[C@@H](N)CCCCNC(=O)CC[C@H](NC(=O)CCCCCCCCCCCCCCCCC(=O)O)C(=O)O)NC(=O)[C@H](CCC(=O)O)NC(=O)[C@H](CC(C)C)NC(=O)[C@H](CC(C)C)NC(=O)[C@@H](NC(=O)[C@H](CO)NC(=O)[C@H](Cc1ccc(O)cc1)NC(=O)[C@H](CC(=O)O)NC(=O)[C@H](CO)NC(=O)[C@@H](NC(=O)[C@H](Cc1ccccc1)NC(=O)[C@@H](NC(=O)CNC(=O)[C@H](CCC(=O)O)NC(=O)C(C)(C)NC(=O)[C@@H](N)Cc1ccc(O)cc1)[C@@H](C)O)[C@@H](C)O)[C@@H](C)CC)C(=O)N[C@@H](CC(N)=O)C(=O)N[C@@H](Cc1c[nH]c2ccccc12)C(=O)N[C@@H](CC(C)C)C(=O)N[C@@H](CC(C)C)C(=O)N[C@@H](C)C(=O)NCC(=O)NCC(=O)N1CCC[C@H]1C(=O)N[C@@H](CO)C(=O)N[C@@H](CO)C(=O)NCC(=O)N[C@@H](C)C(=O)O [Compound 21] (H-Y[Aib]EGTFTSDYSILLEK([εLys-εLys-γGlu-C18 diacid])QAAREFINWLLAGGPSSGA-OH) | – | 9.88 | – | 9.93 | 11.27 | 11.24 |
